Test results published in US20030165475A1, “Non-lethal methods for conditioning a recipient for bone marrow transplantation” (priority 1993, published 2003).
Where “and” joins values, the source holds several entries; their conditions need not be identical. Identical values can stand only once. Like-named read-outs stand apart in the source and are kept apart here.

Key:
[1] = tested on: B10 mice; format: in vivo, mouse
Procedure: Briefly, peripheral blood was collected into heparinized plastic serum vials. […] (400g×20 minutes). […] Lymphocytes were stained for class I antigens with anti-H-2^b-FITC (Pharmingen; San Diego, Calif.), anti-H-2^k-FITC (Pharmingen), and anti-H-2^d-FITC (Pharmingen) monoclonal antibodies (Mab) for 45 minutes at 4° C. Lineage typing was performed by two color flow cytometry using anti-B-cell (B220-FITC, Pharmingen), anti-T cell (αβ-TCR-PE, CD4-FITC, CD8-PE, Pharmingen), anti-natural killer cell (NK1.1-PE, Pharmingen), anti-granulocyte (GR-1-FITC, Pharmingen), and anti-monocyte/macrophage (MAC-1-FITC, Boehringer Mannheim; Indianapolis, Id.) Mab. […] Analyses were performed using forward and side scatter characteristics for the lymphoid and myeloid gates.
To examine whether ALG would enhance the engraftment of allogeneic bone marrow in the established radiation-based model, recipient B10 mice received one of three conditioning approaches prior to transplantation with 40×10^6 or 15×10^6 BALB/c bone marrow cells: 70 mg/kg i.v. ALG given three,days prior to bone marrow transplantation (Group 1); 5Gy of TBI on the day of transplantation (Group 2); or both ALG and TBI as administered in groups 1 and 2 (Group 3). The timing of ALG was chosen to assure maximum immunosuppression at the time of allogeneic bone marrow infusion (Wood et al., 1971, Trans Proc 3(l):676). As in previous analysis, recipients were peripheral blood leukocyte (PBL)-typed for evidence of allogeneic engraftment 2 months following bone marrow transplantation.
To examine the influence of donor cell number on the ability of ALG and TBI to enhance alloengraftment, dose-titration studies were performed in which the above established radiation plus ALG conditioning were utilized. Recipients were conditioned as above prior to receiving 40×10^6, 15×10^6, or 5×10^6 BALB/c bone marrow cells.
Animals were PBL typed 2 months following reconstitution.
To examine the influence of timing of radiation on the engraftment of allogeneic bone marrow, recipient B10 mice were irradiated with 5Gy TBI one week prior to transplantation with 40×10^6 BALB/c allogeneic bone marrow cells.
B10 mice were treated with ALG at 2 mg/mouse i.v. at day −3 before bone marrow transplantation.

[2] = tested on: B10 mice; conditions: for NO. OF ANIMALS ENGRAFTED: 300 cGy
Procedure: Recipients were characterized for donor cell engraftment using flow cytometry (FACS II, Becton Dickinson; Mountain View, Calif.) to determine the presence of peripheral blood lymphocytes bearing H-2^b, H-2^k, and H-2^d encoded antigens as described (Jeffries et al., 1985, J Exp Med 117:127).
Briefly, peripheral blood was collected through tail bleeding into heparinized plastic serum vials. 2001 μl of Medium 199 (Gibco Laboratories; Grand Island, N.Y.) were added to each vial. After thorough mixing, the suspension was layered over 1.5 ml of room temperature Lymphocyte Separation Medium (LSM) (Organon Teknika; Durham, N.C.) and centrifuged at 37° C. (400g×20 minutes). The buffy coat layer was aspirated from the Medium 199-LSM interface and washed with medium. Lymphocytes were stained with fluorescein-conjugated monoclonal antibodies for donor- and host-specific class I antibodies H2K^b (AF6-88.5), H2K^d (SF1-1.1), and H2K^k (AF3-12.1) (Pharmingen) conjugated with fluorescein and lineage markers conjugated with PE α β-TCR (H57-597), CD4 (L3T4), CD8 (Ly2), NK1.1 (PK136), and CD45R/B220 (RA3-603) (Pharmingen) and MAC-1 (M1/70) (Boehringer Mannheim, Indianapolis, Ind.) for 45 minutes at 4° C.

[3] = tested on: B10 mice; assay: Glucose phosphate isomerase-1 (GPI-1) typing of platelets and erythrocytes in mixed allogeneic chimeras; format: in vivo, mouse; conditions: 5 Gy TBI-based regimen, individual animals, 2 months
Procedure: Peripheral blood (0.9 ml) was collected into heparinized microcentrifuge vials. The blood was spun for four seconds at the maximal setting (14,000 rpm) of an Eppendorf microcentrifuge (Beckman #5415). This setting was chosen through an optimization strategy in which force and times were varied as a function of retrieved platelet number. This duration included the acceleration phase, which is incomplete when power is curtailed at the four second mark. After this, the samples were allowed to slow to a halt without braking. Platelet-rich plasma was then carefully aspirated with a disposable polyethylene pipette, avoiding any disturbance of the buffy coat. Triplicate platelet counts were obtained using a Coulter Model ZB1 counter (Hialeah, Fla.), and the average (variation 5%) calculated. […]
Typing of red blood cell (RBC) and platelet phenotypes was performed using the GPI-1 assay (Ildstad, et al., 1991, J Exp Med 174:467). The precipitation pattern for BALB/c mouse and B10 mouse were performed as controls and determined to be totally disparate. […] Percentages were determined by comparison with the positive control. […] In titrations performed to determine the sensitivity of this assay, as low as 2% of BALB/c RBC titrated into normal B10RBC could be reliably detected (Ildstad, et al., 1991, J Exp Med 174:467). […]

[4] = tested on: NOD mice; assay: Partial conditioning for HSC chimerism in NOD mice; format: in vivo, mouse
Excerpt: Often, higher doses of donor cells are required for engraftment as well as higher doses of conditioning to make space. […] One of the goals of the present studies was to identify a strategy to overcome the alloresistance to chimerism in NOD mice by further reducing the irradiation dose for conditioning.
The animals were transplanted with 55×10^6 or 60×10^6 B10.BR/SgnSnJ bone marrow cells, respectively.

[5] = tested on: baboon; conditions: CyP day -3, -2, -1 + 9.5 Gy TLI day 0
Procedure: In the following study, baboons were treated with a single dose of 7.5 Gy of TLI at day 0 followed by transfer of allogeneic baboon bone marrow cells with at least one MHC disparity. […] Xenogeneic transplantation with human cells was also performed in baboons conditioned with TLI.

[6] = 600 cGy TBI + CyP 50 mg/kg i.p. two days after BMT, 60 × 10^6 B10.BR cells

In the case of `O=P1(N(CCCl)CCCl)NCCCO1` (stereo not drawn) [CyP, cyclophosphamide], the “engraftment of allogeneic bone marrow” value ([1]; 5Gy TBI + CyP 200 mg/kg i.p. 2 days later, 40 × 10^6 B10.BR or BALB/c → B10, 2 months) is reported as “nearly all recipients”, the “degree of donor chimerism” value ([1]; 5Gy TBI + CyP 200 mg/kg i.p. 2 days later, all chimeras) is reported as greater than 90% and the recipient mice engrafted ([1]; 5Gy TBI and CyP, regardless of donor strain or CyP before or shortly after TBI (n=15)) is reported as roughly 75%. For the same compound, the “% BALB/c lymphoid cells” value ([1]; 5 Gy TBI-based regimen, BALB/c → B10, individual animals, flow cytometry, 2 months) was 99% and 98% and 91% and 92%, the engraftment ([1]; CyP 200 mg/kg i.p. alone, no TBI) was “failed to engraft” and the allogeneic donor chimerism ([1]; chimeras after 5Gy TBI and CyP) was no less than 90%. The recipients engrafted ([2]; 50 mg/kg CyP or more on day 2 with ALG plus 300 cGy TBI) was “more than 85%”, the “NO. OF ANIMALS ENGRAFTED” value ([2]; CyP 50 mg/kg day 2, 1 MG ALG) was 2/2 and the “NO. OF ANIMALS ENGRAFTED” value ([2]; CyP 50 mg/kg day 2, 2 MG ALG) was 1/1. The “NO. OF ANIMALS ENGRAFTED” value ([2]; CyP 50 mg/kg day 2, TOTAL) was 3/3, the “NO. OF ANIMALS ENGRAFTED” value ([2]; CyP 100 mg/kg day 2, 1 MG ALG) was 2/2 and the “NO. OF ANIMALS ENGRAFTED” value ([2]; CyP 100 mg/kg day 2, 2 MG ALG) was 2/2. The “NO. OF ANIMALS ENGRAFTED” value ([2]; CyP 100 mg/kg day 2, TOTAL) was 4/4, the “NO. OF ANIMALS ENGRAFTED” value ([2]; CyP 150 mg/kg day 2, 1 MG ALG) was 3/4 and the “NO. OF ANIMALS ENGRAFTED” value ([2]; CyP 150 mg/kg day 2, 2 MG ALG) was 2/2. The “NO. OF ANIMALS ENGRAFTED” value ([2]; CyP 150 mg/kg day 2, TOTAL) was 5/6, the “NO. OF ANIMALS ENGRAFTED” value ([2]; CyP 200 mg/kg day 2, 1 MG ALG) was 5/6 and the “NO. OF ANIMALS ENGRAFTED” value ([2]; CyP 200 mg/kg day 2, 2 MG ALG) was 7/8. For the same compound, the “NO. OF ANIMALS ENGRAFTED” value ([2]; CyP 200 mg/kg day 2, TOTAL) was 12/14, the “% BALB/c RBC” value [3] was 100% and the “% BALB/c platelets” value [3] was 71% and 78% and 69% and 31%. The “ANIMALS WITH ENGRAFTMENT” value ([4]; 600 cGy TBI + 100 μg mAb i.v. day 5, 3, 1 prior, or + 200 mg/kg CyP i.p. two days after, 55 or 60 × 10^6 B10.BR cells) was 4/4, the donor chimerism [4, 6] was 91.5% and the engraftment [4, 6] was 100%. For the same compound, the animals engrafted ([4]; 600 cGy TBI + single dose CyP 200 mg/kg) was 100%, the GVHD / morbidity [5] was “no GVHD or significant morbidity” and the “chimerism, human cells” value ([5]; two months after transplantation) was 15%.
